Type in all cases: cell-based
Test [1] concerns Trypanosoma brucei Lister 427 VSG221 with APOL1 G1 recombinant protein. The experiment in a line: APOL1 G1 trypanosome cell rescue assay (Example B5). Conditions: geometric mean of at least 2 assay runs, † = single assay run. The method, boiled down: (§1)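 Recombinant mature APOL1 (residues 28-398, His-tag removed, E. coli-expressed, refolded from inclusion bodies, DDM buffer) at […] added with 250 trypanosomes/well in modified HMI-9 media. Duplicate 11-point 2-fold compound series, 0.4% DMSO; 20 h at 37° C, 5% CO2, then CellTiter-Glo luminescence for viability.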

For test [2], the system named is Trypanosoma brucei Lister 427 VSG221 with APOL1 G0 recombinant protein. The experiment in a line: APOL1 G0 trypanosome cell rescue assay (Example B5). The following applies: geometric mean of at least 2 assay runs, † = single assay run. The method, boiled down: as §1
Test [3] concerns Trypanosoma brucei Lister 427 VSG221 with APOL1 G2 recombinant protein. Put plainly: APOL1 G2 trypanosome cell rescue assay (Example B5). The following applies: geometric mean of at least 2 assay runs, † = single assay run. The method in brief: as §1
The subject of test [4] is HEK293 clonal cell line overexpressing APOL1 G1. The experiment in a line: APOL1 G1 HEK293 cell rescue assay (Example B3). The following applies: geometric mean of at least 2 runs, † = single run, ¥ = concentration at 50% rescue estimated (no sigmoidal curve). The method in brief:
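HEK293 clonal line overexpressing APOL1 G1; EC50 is half-maximal reversal of APOL1-induced cell death. Values are the geometric mean of ≥2 runs on separate days, each run the average of duplicate wells. Where no sigmoidal curve could be fitted, the concentration giving 50% rescue was estimated.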

Where [5] appears, read: read-out: APOL1 G1 Trypanosome Rescue EC50, Trypanosoma brucei Lister 427 VSG221 with APOL1 G1 recombinant protein, 20 hours, CellTiter-Glo.
[6] abbreviates: read-out: APOL1 G0 Trypanosome Rescue EC50, Trypanosoma brucei Lister 427 VSG221 with APOL1 G0 recombinant protein, 20 hours, CellTiter-Glo.
Where [7] appears, read: read-out: APOL1 G2 Trypanosome Rescue EC50, Trypanosoma brucei Lister 427 VSG221 with APOL1 G2 recombinant protein, 20 hours, CellTiter-Glo.
Setting [8] is: HEK293 clonal line overexpressing APOL1 G1.
The mark [9] stands for this setting: Trypanosoma brucei, 20 h, read-out: APOL1 G1 Trypanosome Rescue EC50, Trypanosoma brucei Lister 427 VSG221 with APOL1 G1 recombinant protein, 20 hours, CellTiter-Glo.
The mark [10] stands for this setting: Trypanosoma brucei, 20 h, read-out: APOL1 G0 Trypanosome Rescue EC50, Trypanosoma brucei Lister 427 VSG221 with APOL1 G0 recombinant protein, 20 hours, CellTiter-Glo.
The mark [11] stands for this setting: Trypanosoma brucei, 20 h, read-out: APOL1 G2 Trypanosome Rescue EC50, Trypanosoma brucei Lister 427 VSG221 with APOL1 G2 recombinant protein, 20 hours, CellTiter-Glo.
[12] abbreviates: Homo sapiens, HEK293, HEK293 clonal line overexpressing APOL1 G1.

Where two headings read alike, the source gives them in different places. Where only a bound is given, the exact number is not on record here.

Usually EC50 stands for the concentration at which the effect is half-maximal. In the case of `CC(c1ccc(OCCN2CCC3(CC2)C(=O)Nc2ccc(C#N)cc23)cc1)S(C)(=O)=O` (single isomer, unassigned) [Compound 135, (R) or (S)-1′-{2-[4-(1-methanesulfonylethyl)phenoxy]ethyl}-2-oxo-1,2-dihydrospiro[indole-3,4′-piperidine]-5-carbonitrile], the EC50 in test [1] (setting [5]) was 1200 nM; in test [2] (setting [6]), 1080 nM; in test [3] (setting [7]), 303 nM; in test [4] (setting [8]) it was 1140 nM.

On to `CC(c1c(F)cc(OCCN2CCC3(CC2)C(=O)Nc2ccc(C#N)cc23)cc1F)S(C)(=O)=O` (single isomer, unassigned) [Compound 138, (S) or (R)-1′-{2-[3,5-difluoro-4-(1-methanesulfonylethyl)phenoxy]ethyl}-2-oxo-1,2-dihydrospiro[indole-3,4′-piperidine]-5-carbonitrile], for which the EC50 is 585 nM in test [1] (setting [9]), 326 nM in test [2] (setting [10]), 165 nM in test [3] (setting [11]) and 253 nM in test [4] (setting [12]).

`CC(c1c(F)cc(OCCN2CCC3(CC2)C(=O)Nc2ccc(C#N)cc23)cc1F)S(C)(=O)=O` (single isomer, unassigned) [Compound 139, (R) or (S)-1′-{2-[3,5-difluoro-4-(1-methanesulfonylethyl)phenoxy]ethyl}-2-oxo-1,2-dihydrospiro[indole-3,4′-piperidine]-5-carbonitrile]: the EC50 was 537 nM in test [1] (setting [5]), 335 nM in test [2] (setting [6]), 147 nM in test [3] (setting [7]) and 383 nM in test [4] (setting [8]).

In the case of `CC(c1c(F)cc(OCCN2CCC3(CC2)C(=O)Nc2ccc(Cl)cc23)cc1F)S(C)(=O)=O` (single isomer, unassigned) [Compound 142, (S) or (R)-5-chloro-1′-{2-[3,5-difluoro-4-(1-methanesulfonylethyl)phenoxy]ethyl}-1,2-dihydrospiro[indole-3,4′-piperidin]-2-one], the EC50 in test [1] (setting [9]) was 98.3 nM; in test [2] (setting [10]) it was 63.5 nM; in test [3] (setting [11]) it was 35.3 nM; in test [4] (setting [12]), 192 nM.

In the case of `CC(c1c(F)cc(OCCN2CCC3(CC2)C(=O)Nc2ccc(Cl)cc23)cc1F)S(C)(=O)=O` (single isomer, unassigned) [Compound 143, (R) or (S)-5-chloro-1′-{2-[3,5-difluoro-4-(1-methanesulfonylethyl)phenoxy]ethyl}-1,2-dihydrospiro[indole-3,4′-piperidin]-2-one], the EC50 is 64.1 nM in test [1] (setting [5]), 41.1 nM in test [2] (setting [6]), 21.1 nM in test [3] (setting [7]) and 125 nM in test [4] (setting [8]).

With `CN=S(C)(=O)c1ccc(OCCN2CCC3(CC2)C(=O)Nc2ccc(Cl)cc23)cc1` (single isomer, unassigned) [Compound 148, (S) or (R)-5-chloro-1′-(2-{4-[methyl(methylimino)oxo-λ^6-sulfanyl]phenoxy}ethyl)-1,2-dihydrospiro[indole-3,4′-piperidin]-2-one], the EC50 is 201 nM in test [1] (setting [9]), 140 nM in test [2] (setting [10]), 61.8 nM in test [3] (setting [11]) and 282 nM in test [4] (setting [12]).

With `CN=S(C)(=O)c1ccc(OCCN2CCC3(CC2)C(=O)Nc2ccc(Cl)cc23)cc1` (single isomer, unassigned) [Compound 149, (R) or (S)-5-chloro-1′-(2-{4-[methyl(methylimino)oxo-λ^6-sulfanyl]phenoxy}ethyl)-1,2-dihydrospiro[indole-3,4′-piperidin]-2-one], the EC50 was 174 nM in test [1] (setting [5]), 117 nM in test [2] (setting [6]), 51.8 nM in test [3] (setting [7]) and 246 nM in test [4] (setting [8]).

`CN=S(C)(=O)c1ccc(OCCN2CCC3(CC2)C(=O)Nc2ccc(C#N)cc23)cc1` (single isomer, unassigned) [Compound 151, (S) or (R)-1′-(2-{4-[methyl(methylimino)oxo-λ^6-sulfanyl]phenoxy}ethyl)-2-oxo-1,2-dihydrospiro[indole-3,4′-piperidine]-5-carbonitrile]: the EC50 is 1330 nM in test [1] (setting [9]), 1040 nM in test [2] (setting [10]), 347 nM in test [3] (setting [11]) and ~2500 nM in test [4] (setting [12]).

Turning to `CN=S(C)(=O)c1ccc(OCCN2CCC3(CC2)C(=O)Nc2ccc(C#N)cc23)cc1` (single isomer, unassigned) [Compound 152, (R) or (S)-1′-(2-{4-[methyl(methylimino)oxo-λ^6-sulfanyl]phenoxy}ethyl)-2-oxo-1,2-dihydrospiro[indole-3,4′-piperidine]-5-carbonitrile], the EC50 in test [1] (setting [5]) was 1530 nM; in test [2] (setting [6]) it was 1050 nM; in test [3] (setting [7]), 416 nM; in test [4] (setting [8]), > 4170 nM.

As for `O=C1Nc2ccc(Cl)cc2C12CCN(CCOc1ccc(C3CCCS3(=O)=O)cc1)CC2` (single isomer, unassigned) [Compound 176, (S) or (R)-2-[4-(2-{5-chloro-2-oxo-1,2-dihydrospiro[indole-3,4′-piperidin]-1′-yl}ethoxy)phenyl]-1λ^6-thiolane-1,1-dione], the EC50 in test [1] (setting [9]) is 177 nM; in test [2] (setting [6]), 120 nM; in test [3] (setting [11]), 44.6 nM; in test [4] (setting [12]) it was 157 nM.

For the compound `O=C1Nc2ccc(Cl)cc2C12CCN(CCOc1ccc(C3CCCS3(=O)=O)cc1)CC2` (single isomer, unassigned) [Compound 177, (R) or (S)-2-[4-(2-{5-chloro-2-oxo-1,2-dihydrospiro[indole-3,4′-piperidin]-1′-yl}ethoxy)phenyl]-1λ^6-thiolane-1,1-dione], the EC50 in test [1] (setting [5]) is 314 nM; in test [2] (setting [6]), 260 nM; in test [3] (setting [7]) it was 84.4 nM; in test [4] (setting [8]), 132 nM.

Turning to `CS(=O)(=O)c1ccc(OCCN2CCC3(CC2)C(=O)Nc2c(C#N)cc(Cl)cc23)cc1` [Compound 9, 5-chloro-1′-[2-(4-methanesulfonylphenoxy)ethyl]-2-oxo-1,2-dihydrospiro[indole-3,4′-piperidine]-7-carbonitrile], the EC50 is > 4000 nM in test [1] (setting [9]), > 4000 nM in test [2] (setting [10]), 1320 nM in test [3] (setting [11]) and ~11500 nM in test [4] (setting [12]).

Take `CS(=O)(=O)CCCn1ncc2cc(OCCN3CCC4(CC3)C(=O)Nc3ccc(Cl)cc34)ccc21` [Compound 14, 5-chloro-1′-(2-{[1-(3-methanesulfonylpropyl)-1H-indazol-5-yl]oxy}ethyl)-1,2-dihydrospiro[indole-3,4′-piperidin]-2-one]: the EC50 in test [1] (setting [9]) is 488 nM; in test [2] (setting [10]), 378 nM; in test [3] (setting [11]) it was 127 nM; in test [4] (setting [12]), 476 nM.

As to `O=C1Nc2ccc(Cl)cc2C12CCN(CCOc1ccc3c(cnn3C3COC3)c1)CC2` [Compound 15, 5-chloro-1′-(2-{[1-(oxetan-3-yl)-1H-indazol-5-yl]oxy}ethyl)-1,2-dihydrospiro[indole-3,4′-piperidin]-2-one], the EC50 is 342 nM in test [1] (setting [9]), 336 nM in test [2] (setting [10]), 124 nM in test [3] (setting [11]) and 279 nM in test [4] (setting [12]).

On to `CC(C)n1ncc2cc(OCCN3CCC4(CC3)C(=O)Nc3ccc(Cl)cc34)ccc21` [Compound 16, 5-chloro-1′-(2-{[1-(propan-2-yl)-1H-indazol-5-yl]oxy}ethyl)-1,2-dihydrospiro[indole-3,4′-piperidin]-2-one], for which the EC50 in test [1] (setting [9]) is 312 nM; in test [2] (setting [10]), 267 nM; in test [3] (setting [11]), 110 nM; in test [4] (setting [12]), 295 nM.
